Entries after “also recorded” stand apart in the source; their conditions may differ. Marks after values point to notes of the source that are not given here.
How the values were obtained:
Format in all cases: in vivo
[1] = system: C57BL/6 mice with UUO surgical ligation; assay: Example 1: UUO mice, renal fibrosis evaluation (Sirius Red histology score); settings: Bemithyl 200, Emoxypine 160, Suplatast Tosylate 60, Udenafil 40, Telmisartan 5 mg/kg PO QD
Experimental: (§1) Male 9-12 week old C57BL/6 mice of 23-25 grams body weight were used. All mice were acclimated for a minimum of 5 days prior to the start of the study and housed individually in microisolators throughout the study in a 12:12 light-dark cycle on a standard maintenance mouse chow diet (Harlan Teklad 2018) with food and water given ad libitum. Prior to surgery, all mice were weighed for baseline body weight.
(§2) The UUO surgical intervention was performed according to previously described methods known in the art (Le Meur Y et al., Macrophage accumulation at a site of renal inflammation is dependent on the M-CSF/c-fms pathway, J Leukocyte Biol., 72:530-537; 2002).
(§3) All mice were first anesthetized by intraperitoneal injection with a rodent cocktail (ketamine 10 mg/mL and Xyaline 1 mg/mL) in normal saline (10 μL/g body weight). Pedal reflex and movement of the vibrissae were used to determine the state of unconsciousness. A state of unconsciousness was confirmed after a period of about 5 minutes in all animals. All mice were then shaved on the left side of the abdomen. The shaved area was first swabbed with iodine and then swabbed with alcohol. A vertical incision was made through the skin with a #22 scalpel and the skin was then retracted. A further incision of about 2.5 cm was then made through the peritoneum avoiding any major blood vessels. The peritoneum was then retracted and the left kidney was exposed.
(§4) The left kidney was then brought to the surface by hooking the ureter directly beneath the kidney with sterile forceps and gently manipulating the kidney upward. The ureter was ligated at two points directly below the kidney with 5-0 surgical silk with excess suture cut away and discarded post-ligation. The kidney was then gently placed back to its correct anatomical position and the abdomen was lavaged with 1 mL sterile saline to replenish fluid loss. The peritoneum and then skin were sutured with 5-0 Mersilene, and the incision site was gently wiped with iodine. All mice were then placed individually in clean cages that were set on top of a thermal blanket until recovery at about 30-60 minutes later. In some examples, sham surgery was performed as a control by following all steps of the UUO surgical intervention procedure except ligation.
(§5) Following surgery, the mice were divided into 14 individual study groups of 8 mice each and, following post-surgical recovery, administered a once-daily oral treatment for 14 days. The mice in 12 of the 14 study groups (hereafter known as “treatment groups”) had all received the UUO surgical ligation and were treated individually with a distinct pharmacologic compound as set out in Table 1. The mice in 2 of the 14 study groups were treated individually with a pharmaceutically acceptable vehicle with no active ingredient. The pharmaceutically acceptable vehicle in all groups was 0.5% carboxymethyl cellulose (CMC). All mice were sacrificed with CO2 on post-surgical day 15.
The dose selected for the animal studies was determined by taking the maximum known human daily dose, dividing by the average weight of an adult (˜60-70 kg) to get a human mg/kg dose. […]
Histopathology: Formalin-fixed kidney cross-section samples were subjected histopathological scoring with Sirius Red staining, and imaged at a magnification of ×20, using standard techniques. All three sections were stained and evaluated. […] The presence of interstitial damage and severity score was assessed according to the following criteria: 0=normal, 1=light, 2=moderate, 3=severe. […]

[2] = system: C57BL/6 mice with UUO surgical ligation; assay: Example 1: UUO mice, renal function evaluation (plasma BUN, creatinine); settings: for BUN in comparison to control groups, in words / Reduction in levels of BUN compared to vehicle, significance in words: Example 1; for BUN in comparison to control groups, in words: UUO, male C57BL/6 mice, PO QD days 1-14, doses of Table 1; for Reduction in BUN compared to vehicle, in words, post-test not stated: Example 1 text and conclusions, Bemithyl 200, Repirinast 30, Bromantane 20, Telmisartan 5 mg/kg PO QD; for Reduction in levels of BUN compared to vehicle, significance in words: p<0.05, Tamhane post-test, Repirinast 30, Bemithyl 200, Bromantane 20 mg/kg PO QD
Experimental: as §1, §2, §3, §4, §5
(§6) The dose selected for the animal studies was determined by taking the maximum known human daily dose, dividing by the average weight of an adult (˜60-70 kg) to get a human mg/kg dose. Then that number was multiplied by 12 to convert to a mouse dose based on conventional dosing tables. See Nair and Jacob, J Basic Clin Pharm March 2016-May 2016, 7(2):27-31.
Serum collection: A blood sample was then collected from all mice and plasma analyzed for urea nitrogen and creatinine. Plasma was stored at −80° C. for possible future analysis.
Renal Function Evaluation: Renal function and disease progression was evaluated by BUN (blood urea nitrogen) as previously described. The BUN of each study group consisted of the BUN average of all mice in each study group.

[3] = system: C57BL/6 mice with UUO surgical ligation; assay: Example 2: UUO mice, renal fibrosis evaluation (Sirius Red histology score); settings: for Level of kidney fibrosis / histology score compared to vehicle or other agents, in words: mg/kg PO QD: Telmisartan 3, Bemithyl 200, Repirinast 30, Telmisartan+Bemithyl 3+200, Telmisartan+Repirinast 3+30, Cenicriviroc 40, Bromantane 40; for Histology Score: Sirius Red, 0=normal, 1=light, 2=moderate, 3=severe, group mean; for Histology Score / Reduction of fibrosis (%) (versus vehicle): UUO, female C57BL/6 mice, PO QD days 1-14; for Reduction of fibrosis (%) (versus vehicle): from histology score
Experimental: In this example, healthy young female C57BL/6 mice were used for the study. At the commencement of the study, mice were between 9-12 weeks of age, weighing 23-25 g. All the mice were obtained from Charles River Laboratories.
The mice were maintained in a controlled environment with a temp 70-72° F., humidity 30-70%, with a photo cycle of 12 hours of light and 12 hours of dark. They were provided with Harlan Teklad 2018 standard maintenance mouse chow diet and drinking water ad libitium.
After five days of acclimatization, the mice were grouped according to their body weight. There were ten groups of ten mice each. Nine groups of ten mice each underwent UUO as described above and the other group of ten mice underwent a sham procedure to serve as a no-surgery control.
Following surgery, the mice were divided into 10 individual study groups of 10 mice each and, following post-surgical recovery, administered a once-daily oral treatment for 14 days. The mice in 8 of the 10 study groups had all received the UUO surgical ligation and were treated individually with a distinct pharmacologic compound as set out in Table 6. The mice in 2 of the 10 study groups were treated individually with a pharmaceutically acceptable vehicle with no active ingredient. The pharmaceutically acceptable vehicle in all groups was 0.5% carboxymethyl cellulose (CMC). All mice were sacrificed with CO2 on post-surgical day 15.
as §6, with “That” for “Then that”
Histopathology: Formalin-fixed kidney cross-section samples were subjected histopathological scoring with Sirius Red staining, and imaged at a magnification of ×20, using standard techniques. All three sections were stained and evaluated. The analysis was performed by a board-certified veterinarian pathologist. The presence of interstitial damage and severity score was assessed according to the following criteria: 0=normal; 1=light; 2=moderate; 3=severe.
The data are presented as the mean obtained from Microsoft Excel or GraphPad Prism version 5.00 for Windows (GraphPad Software, San Diego California USA). Data were analyzed using two-way ANOVA using Bonferroni and Tamhane post-tests. Differences between groups were considered significant at p<0.05.
Renal Fibrosis Evaluation: Renal fibrosis and interstitial damage was evaluated by histochemical staining of renal cross-sections with Sirius Red as previously described. The Histology Score of each study group consisted of the histology score average of all mice in each study group.

[4] = mg/kg: Telmisartan 3, Bemithyl 200, Repirinast 30, Telmisartan+Bemithyl 3+200, Telmisartan+Repirinast 3+30, Cenicriviroc 40, Bromantane 40

SMILES	Kidney fibrosis / Histology Score, significance and comparison in words [1]	BUN in comparison to control groups, in words [2]	Reduction in BUN compared to vehicle, in words, post-test not stated [2]	Reduction in levels of BUN compared to vehicle, significance in words [2]	Level of kidney fibrosis / histology score compared to vehicle or other agents, in words ([3]; Example 2)	Histology Score [3, 4]	Reduction of fibrosis (%) (versus vehicle) [3, 4]	Level of kidney fibrosis compared to vehicle, in words ([3]; Example 2, Repirinast 90 mg/kg PO QD)	Histology Score ([3]; Repirinast 90 mg/kg)	Reduction of fibrosis (%) (versus vehicle) ([3]; Repirinast 90 mg/kg)
CCSc1nc2ccccc2[nH]1 [Bemithyl, 2-Ethylsulfanyl-1H-benzoimidazole]	decreased in comparison to the positive control treatment group; also recorded: significant reductions in kidney fibrosis; also recorded: significant improvement in kidney fibrosis	less renal dysfunction and disease progression than the positive control treatment; also recorded: decreased in comparison to the sham surgery control group; also recorded: most improved renal function of all	reduction in BUN compared to vehicle	significant reductions in the levels of BUN	significantly reduce the level of kidney fibrosis compared to vehicle; also recorded: significant improvement in kidney fibrosis	1.15**	52	–	–	–
CCCc1nc2c(C)cc(-c3nc4ccccc4n3C)cc2n1Cc1ccc(-c2ccccc2C(=O)O)cc1 [Telmisartan, 2-(4-{[4-Methyl-6-(1-methyl-1H-1,3-benzodiazol-2-yl)-2-propyl-1H-1,3-benzodiazol-1-yl]methyl}phenyl)benzoic acid]	significant reduction; also recorded: reduction in BUN levels and fibrosis	–	did not show a significant reduction; also recorded: the former was not statistically significant	–	statistically insignificant improvements; also recorded: did not show significant reductions	1.62*#	33	–	–	–
Brc1ccc(NC2C3CC4CC(C3)CC2C4)cc1 (stereo not drawn) [Bromantane, N-(4-Bromophenyl)adamantan-2-amine]	–	less renal dysfunction and disease progression than the positive control treatment; also recorded: decreased in comparison to the sham surgery control group	significant reductions in BUN compared to vehicle	significant reductions in the levels of BUN	significantly reduce the level of kidney fibrosis compared to vehicle; also recorded: greatest numerical reduction in the histology score; also recorded: superior to both Telmisartan; also recorded: significant improvement in kidney fibrosis; also recorded: highest reductions in both fibrosis and BUN levels	1.02*#	58	–	–	–
Cc1ccc2c([nH]c(=O)c3c(=O)cc(C(=O)OCCC(C)C)oc32)c1C [Repirinast, 3-methylbutyl 7,8-dimethyl-4,5-dioxo-5,6-dihydro-4H-pyrano[3,2-c]quinoline-2-carboxylate]	–	less renal dysfunction and disease progression than the positive control treatment; also recorded: decreased in comparison to the sham surgery control group	significant reductions in BUN compared to vehicle	significant reductions in the levels of BUN	statistically insignificant improvements	1.90	21	significantly reduce the level of kidney fibrosis compared to vehicle; also recorded: significant improvement in kidney fibrosis	1.19*#	51

From patent US12280026B2, “Use of repirinast in the prophylaxis or treatment of renal fibrosis or kidney disease” (ALGERNON PHARMACEUTICALS INC., priority 2018, dated 2025)
